Data taken from US4766212A, “2H-[1]benzoxepino[5,4-b]-1,4-oxazine derivatives” (Merrell Dow Pharmaceuticals Inc., priority 1987, dated 1988).

How the values were obtained:
[1] = test system: morphine-induced Straub tail; experiment: Antagonism of morphine-induced Straub tail (muscle relaxant activity); format: in vivo; settings: Mus musculus, ip; mice, i.p., 15 min before morphine sulfate s.c.
Method: The characteristic elevation of the mouse tail (Straub tail) following morphine administration is due to a sustained, centrally mediated reflex contraction of the sacrococcygeus dorsalis muscle. Five to ten mice are used in each test, weight (18 to 30 grams) and placed in a Plexiglass observation chamber 2 to 3 minutes prior to injection. Animals are treated with the test compound at log doses, ca. 10 ml/kg, based upon the ED50 obtained from the Rotorod test (reduction of motor ability). Fifteen minutes later the desired dose of morphine sulfate, ca. 10 ml/kg, is injected subcutaneously and the mice observed for a period of 30 minutes following morphine administration for the presence or absence of Straub tail (defined as elevation of tail at 90° C. or more).

[2] = test system: mice; experiment: Reduction of motor ability, rotorod; format: in vivo; settings: Mus musculus, ip, 50% decrease in mean time on the rotorod
Method: Following a method of Kinnard and Carr, J. Pharmacol. Exp. Therap., 121, 354 (1957), groups of 10 mice are preselected for their ability to remain upon a horizontal rotating (15 rpm) rod (rotorod) for 120 seconds. The mice are dosed with the test compound and tested at various times. The percent change in mean time upon the rotorod from the pre-drug control time of 120 seconds is calculated for each dose group. […] The ED50 is defined as the dose of compound producing a 50% decrease in mean time on the rotorod.

[3] = test system: Spontaneously hypertensive rats; experiment: Systolic arterial blood pressure in spontaneously hypertensive rats (antihypertensive activity); format: in vivo, rat; settings: for Change In Systolic Blood Pressure From Control Post Treatment: * p < 0.05
Method: Spontaneously hypertensive rates (males 250-300 g), obtained from the Charles River Breeding Laboratories, are divided into different treatment groups of 12 rats each. On separate days, one group of 12 rats is given 3, 10 or 30 mg/kg of the test compound, trans-3,4,4a,5,6,11b-hexahydro-10-fluoro-2H-[1]benzoxepino[5,4-b]-1,4-oxazine hydrochloride, by gavage and another group of 12 rats is given water (vehicle, 5 ml/kg).
Systolic arterial blood pressure is recorded from the tail of each rat using an occluding cuff and transducer. Systolic arterial blood pressure is recorded prior and subsequent to the administration of drug or vehicle at 1, 2, 3 and 4 hours post treatment.

[4] = test system: mice; experiment: Acetic acid writhing syndrome test for analgesic activity; format: in vivo, mouse; settings: for ED50: Mus musculus, sc
Method: J. Pharmacol., 22, 2246 (1964).
Groups of 5 to 10 mice are administered one or more doses of the test compound by the desired route (but not intraperitoneally). At a selected time the mice are administered acetic acid, 0.4 ml (0.25% v/v solution) i.p. Five minutes later, the mice are observed for a period of 15 minutes to determine the appearance of squirming (abdominal writhing), and the number of squirms for each mouse is determined.
For ED50 determination, four or more doses of compound are tested in groups of 10 mice. The following ED50 's for analgesic activity were observed and determined.

[5] = 0.5 h, oral, pretreatment time 30 minutes
[6] = 0.5 h, subcutaneous, pretreatment time 30 minutes
[7] = 1 h, subcutaneous, pretreatment time 60 minutes
[8] = 2 h, subcutaneous, pretreatment time 120 minutes

SMILES: Cl.c1ccc2c(c1)OCC[C@H]1NCCO[C@H]21 (relative stereo) [Trans-3,4,4a,5,6,11b-Hexahydro-2H-[1]benzoxepino-[5,4-b]-1,4-oxazine Hydrochloride]
- ED50 [1]: 1.03 mg/kg
- ED50 [2]: 23.9 mg/kg

SMILES: Cl.Fc1ccc2c(c1)[C@H]1OCCN[C@@H]1CCO2 (relative stereo) [trans-3,4,4a,5,6,11b-hexahydro-10-fluoro-2H-[1]benzoxepino[5,4-b]-1,4-oxazine hydrochloride]
- Change In Systolic Blood Pressure From Control Post Treatment ([3]; 3 mg/kg by gavage, 1 Hour): -15 mm Hg
- Change In Systolic Blood Pressure From Control Post Treatment ([3]; 3 mg/kg by gavage, 2 Hours): -20 mm Hg
- Change In Systolic Blood Pressure From Control Post Treatment ([3]; 3 mg/kg by gavage, 3 Hours): -22 mm Hg
- Change In Systolic Blood Pressure From Control Post Treatment ([3]; 3 mg/kg by gavage, 4 Hours): -24 mm Hg
- Change In Systolic Blood Pressure From Control Post Treatment ([3]; 10 mg/kg by gavage, 1 Hour): -52 mm Hg
- Change In Systolic Blood Pressure From Control Post Treatment ([3]; 10 mg/kg by gavage, 2 Hours): -44 mm Hg
- Change In Systolic Blood Pressure From Control Post Treatment ([3]; 10 mg/kg by gavage, 3 Hours): -42 mm Hg
- Change In Systolic Blood Pressure From Control Post Treatment ([3]; 10 mg/kg by gavage, 4 Hours): -45 mm Hg
- Change In Systolic Blood Pressure From Control Post Treatment ([3]; 30 mg/kg by gavage, 1 Hour): -84 mm Hg
- Change In Systolic Blood Pressure From Control Post Treatment ([3]; 30 mg/kg by gavage, 2 Hours): -73 mm Hg
- Change In Systolic Blood Pressure From Control Post Treatment ([3]; 30 mg/kg by gavage, 3 Hours): -73 mm Hg
- Change In Systolic Blood Pressure From Control Post Treatment ([3]; 30 mg/kg by gavage, 4 Hours): -72 mm Hg
- effect on systolic arterial blood pressure, in words ([3]; 3, 10, 30 mg/kg by gavage): dose related decrease in systolic arterial blood pressure that is statistically significant
- duration of the anti-hypertensive effect ([3]; at the three doses tested (3, 10, 30 mg/kg, gavage)): at least 4 hours

SMILES: CCN1CCO[C@@H]2c3ccccc3OCC[C@H]21 (relative stereo) [Trans-4-Ethyl-3,4,4a,5,6,11b-hexahydro-2H-[1]benzoxepino[5,4-b]-1,4-oxazine]
- ED50 [4, 5]: 6.8 mg/kg
- ED50 [4, 6]: 1.5 mg/kg
- ED50 [4, 7]: 8.8 mg/kg
- ED50 [4, 8]: > 128 mg/kg

SMILES: CN1CCO[C@@H]2c3ccccc3OCC[C@H]21.O=C(O)/C=C\C(=O)O (relative stereo) [Trans-3,4,4a,5,6,11b-Hexahydro-4-methyl-2H-[1]benzoxepino[5,4-b]-1,4-oxazine Maleate]
- ED50 [1]: 2.89 mg/kg
- ED50 [2]: 12.4 mg/kg
- ED50 [4, 5]: 42.8 mg/kg
- ED50 [4, 6]: 4.35 mg/kg
- ED50 ([4]; 1 h, oral, pretreatment time 60 minutes): 52.2 mg/kg
- ED50 [4, 7]: 13.8 mg/kg
- ED50 [4, 8]: 26.6 mg/kg
- analgesic effect in brackets beside the ED50 ([4]; subcutaneous, pretreatment time 120 minutes, @ 256 mg/kg): 50%
